Measured values reported in PMC4893628, “Chalcone-based Selective Inhibitors of a C4 Plant Key Enzyme as Novel Potential Herbicides” (Scientific Reports, 2016).

Columns and labels:
[1] = tested on: B. napus; assay: Leaf gas exchange measurements, B. napus; assay type: in vivo, Brassica napus
Description: (§1) CO2-response curves were obtained on A. retroflexus and B. napus using a LI-6400XT portable photosynthesis system equipped with a fluorescence head and a leaf chamber size of 2 cm^2 (LI-COR, Lincoln, NE, USA) at a photon flux density of 1500 μmol m^−2 s^−1 and at 25 °C leaf temperature. Plants were grown at the research greenhouse of the IBG-2 Institute of Plant Sciences at Forschungszentrum Jülich, Germany (50°55′20″N 06°21′30″E), at a day/night length of 16 h/8 h, at an average day/night temperature of 23 °C/17 °C, relative humidity of 55%, and light intensity of 170 PAR. Plants were treated as described above at the three-leaf stage. Measurements were performed on the third leaf before treatment and one day after treatment. Each treatment was repeated four times. Information on statistical analysis is given in the Supplementary Information.

[2] = tested on: A. retroflexus; assay: Chlorophyll fluorescence measurements, A. retroflexus leaf discs; assay type: in vivo, Amaranthus retroflexus; details: 2 mM
Description: from a fixed distance at 90° view angle using the camera Canon EOS 70D equipped with a Canon EF 14 mm/2.8 L II USM lens. Leaf area of single leaves was measured using the ImageJ software31, by drawing the leaf contours using a drawing tablet (Cintiq 22HD, Wacom Europe GmbH, Krefeld, Germany). Conversion of pixel to cm was achieved by using a target of known size inside the image. Six days after the treatment, half of the plants were harvested. Leaf area was assessed using a leaf area meter (LI3100C Area Meter, LI-Cor, Lincoln, Nebraska, USA) and samples were oven-dried at 65°C for seven days to obtain dry weight . Thirteen days after the treatment, this procedure was repeated with the second half of plants.
Chlorophyll fluorescence measurements
For assessment of photosynthetic parameters, A. retroflexus plants were grown under the abovementioned conditions until the two-leaves growth stage. 6 mm leaf discs were cut out of the second leaf and immediately placed into 96-well-plates filled with 300 µL 0.125 % Hoagland’s solution with 1 mM MES-KOH (MES-monohydrate, Merck, Darmstadt, Germany) buffered to a pH of 6.5. The treatment solution contained 1.6 % (v/v) DMSO, 0.1 % (v/v) Tween® 20 and 2',3',4',3,4-Pentahydroxychalcone at a concentration of 2 mM. The control treatment contained 1.6 % (v/v) DMSO, 0.1 % (v/v) Tween® 20. Each leaf disc was treated with 1.5 µL solution placed on top of the leaf discs. Plates were sealed with Parafilm and placed into a climate cabinet with 12h/12h day/night-length and a temperature of 22°C at a light intensity of 130 µmol m-2 s-1. 96 hours after treatment, chlorophyll fluorescence measurements were performed on leaf discs using an Imaging PAM M-Series fluorescence camera (Heinz Walz GmbH, Effeltrich, Germany). Leaf discs were dark adapted for 30 minutes, minimum and maximum chlorophyll fluorescence were obtained and leaf discs were illuminated for 30 minutes

[3] = tested on: A. retroflexus; assay: Leaf gas exchange measurements, A. retroflexus; assay type: in vivo, Amaranthus retroflexus
Description: as §1

[4] = estimate valid for both measurement days (before and one day after treatment)

SMILES: O=C(/C=C/c1ccc(O)c(O)c1)c1ccc(O)c(O)c1O [Compound 12, 2′,3′,4′,3,4-Pentahydroxy-chalcone]
- photosynthetic parameters ([1]; after treatment): no changes
- maximal electron transport rate (Jmax) [1, 4]: 144.2 (3.77)
- maximal rubisco carboxylation rate (Vcmax) [1, 4]: 81.5 (3.33)
- mitochondrial respiration (Rd) [1, 4]: 0.9 (0.66)
- effective quantum yield of photosystem II [2]: increased
- maximum electron transfer rate [2]: increased
- non-photochemical quenching [2]: reduced
- Maximal PEP carboxylation rate (Vpmax) ([3]; Before treatment): 36.5 μmol m^−2 s^−1
- Maximal PEP carboxylation rate (Vpmax) ([3]; Before treatment, listed as Okanin): 36.5 (3.96) μmol m^−2 s^−1
- Maximal PEP carboxylation rate (Vpmax) ([3]; One day after treatment): 17.2 μmol m^−2 s^−1
- Maximal PEP carboxylation rate (Vpmax) ([3]; One day after treatment, listed as Okanin): 17.2 (2.43) μmol m^−2 s^−1
- decrease of Vpmax ([3]; one day after treatment): more than 50%
